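These data come from cells grown in 96-well plates and exposed to compound for 48 hours at five concentrations. GI50 marks 50% less growth. TGI denotes the concentration required for complete inhibition of growth.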
Experiments:
Assay in all cases: NCI-60 cell line screen, 48 h
[1] = system: HCT-116 colon
[2] = system: NCI/ADR-RES ovarian
[3] = system: MCF7 breast
[4] = system: SF-268 CNS
[5] = system: RPMI-8226 leukemia
[6] = system: SN12C renal
[7] = system: M14 melanoma
[8] = system: HCC-2998 colon
[9] = system: HT29 colon
[10] = system: UACC-62 melanoma
[11] = system: SK-MEL-28 melanoma
[12] = system: KM12 colon
[13] = system: UO-31 renal
[14] = system: 786-0 renal
[15] = system: T-47D breast
[16] = system: OVCAR-3 ovarian
[17] = system: HOP-62 NSCLC
[18] = system: CCRF-CEM leukemia
[19] = system: MDA-MB-231 breast
[20] = system: SF-295 CNS
[21] = system: TK-10 renal
[22] = system: OVCAR-5 ovarian
[23] = system: MDA-MB-468 breast
[24] = system: EKVX NSCLC
[25] = system: RXF 393 renal
[26] = system: HCT-15 colon
[27] = system: SF-539 CNS
[28] = system: A498 renal
[29] = system: SK-MEL-2 melanoma
[30] = system: COLO 205 colon
[31] = system: SK-OV-3 ovarian
[32] = system: LOX IMVI melanoma
[33] = system: MOLT-4 leukemia
[34] = system: NCI-H522 lung
[35] = system: U251 CNS
[36] = system: UACC-257 melanoma
[37] = system: OVCAR-8 ovarian
[38] = system: SW-620 colon
[39] = system: A549 NSCLC
[40] = system: SR leukemia
[41] = system: CAKI-1 renal
[42] = system: HS 578T breast
[43] = system: IGROV1 ovarian
[44] = system: OVCAR-4 ovarian
[45] = system: MALME-3M melanoma
[46] = system: NCI-H23 lung
[47] = system: SNB-75 CNS
[48] = system: MDA-MB-435
[49] = system: NCI-H460 lung
[50] = system: PC-3 prostate
[51] = system: K-562 leukemia
[52] = system: DU-145 prostate
[53] = system: BT-549 breast
[54] = system: ACHN renal
[55] = system: SK-MEL-5 melanoma
[56] = system: HL-60(TB) leukemia
[57] = system: HOP-92 NSCLC
[58] = system: NCI-H226 lung
[59] = system: SNB-19 CNS

Question: How did the GI50 [1] turn out when `CCOc1ccc(/C=N/NC(=O)Cn2nc(Cc3ccc(OC)cc3)c3onc(C)c3c2=O)cc1` was run?
Answer: 3.39 µM

Question: What about the TGI [1] of the same compound?
Answer: 11.6 µM

Question: And the GI50 [2]?
Answer: 5.35 µM

Question: And the TGI [2]?
Answer: 19.7 µM

Question: And the GI50 [3]?
Answer: 4.37 µM

Question: What about the TGI [3] of the same compound?
Answer: 23.9 µM

Question: What about the GI50 [4] of the same compound?
Answer: 10.5 µM

Question: And the TGI [4]?
Answer: 27.4 µM

Question: And the GI50 [5]?
Answer: 78.2 µM

Question: And the TGI [5]?
Answer: > 100 µM

Question: What about the GI50 [6] of the same compound?
Answer: 3.42 µM

Question: And the TGI [6]?
Answer: 13.3 µM

Question: What about the GI50 [7] of the same compound?
Answer: 13.7 µM

Question: What about the TGI [7] of the same compound?
Answer: 75.1 µM

Question: And the GI50 [8]?
Answer: 11 µM

Question: And the TGI [8]?
Answer: 27.4 µM

Question: What about the GI50 [9] of the same compound?
Answer: 12.3 µM

Question: What about the TGI [9] of the same compound?
Answer: 32.9 µM

Question: What about the GI50 [10] of the same compound?
Answer: 13.2 µM

Question: What about the TGI [10] of the same compound?
Answer: 32.7 µM

Question: And the GI50 [11]?
Answer: 10.4 µM

Question: And the TGI [11]?
Answer: 24.8 µM

Question: What about the GI50 [12] of the same compound?
Answer: 41.8 µM

Question: And the TGI [12]?
Answer: > 100 µM

Question: What about the GI50 [13] of the same compound?
Answer: 4.08 µM

Question: And the TGI [13]?
Answer: 19.5 µM

Question: What about the GI50 [14] of the same compound?
Answer: 2.99 µM

Question: And the TGI [14]?
Answer: 10.4 µM

Question: And the GI50 [15]?
Answer: 3.46 µM

Question: What about the TGI [15] of the same compound?
Answer: 22.3 µM

Question: And the GI50 [16]?
Answer: 3.2 µM

Question: And the TGI [16]?
Answer: 10.4 µM

Question: And the GI50 [17]?
Answer: 4.8 µM

Question: And the TGI [17]?
Answer: 18.1 µM

Question: And the GI50 [18]?
Answer: 33.4 µM

Question: What about the TGI [18] of the same compound?
Answer: > 100 µM

Question: What about the GI50 [19] of the same compound?
Answer: 9.23 µM

Question: What about the TGI [19] of the same compound?
Answer: 27.9 µM

Question: What about the GI50 [20] of the same compound?
Answer: 6.77 µM

Question: What about the TGI [20] of the same compound?
Answer: 21.8 µM

Question: What about the GI50 [21] of the same compound?
Answer: 11 µM

Question: And the TGI [21]?
Answer: 28.8 µM

Question: What about the GI50 [22] of the same compound?
Answer: 14.4 µM

Question: And the TGI [22]?
Answer: 51.8 µM

Question: What about the GI50 [23] of the same compound?
Answer: 9.93 µM

Question: What about the TGI [23] of the same compound?
Answer: 29.3 µM

Question: And the GI50 [24]?
Answer: 10.8 µM

Question: And the TGI [24]?
Answer: 30.3 µM

Question: And the GI50 [25]?
Answer: 2.71 µM

Question: What about the TGI [25] of the same compound?
Answer: 6.38 µM

Question: What about the GI50 [26] of the same compound?
Answer: 15.1 µM

Question: What about the TGI [26] of the same compound?
Answer: > 100 µM

Question: What about the GI50 [27] of the same compound?
Answer: 7.35 µM

Question: What about the TGI [27] of the same compound?
Answer: 20 µM

Question: What about the GI50 [28] of the same compound?
Answer: 3.83 µM

Question: And the TGI [28]?
Answer: 13.7 µM

Question: What about the GI50 [29] of the same compound?
Answer: 18.4 µM

Question: What about the TGI [29] of the same compound?
Answer: 41 µM

Question: And the GI50 [30]?
Answer: 40 µM

Question: What about the TGI [30] of the same compound?
Answer: > 100 µM

Question: And the GI50 [31]?
Answer: 4.12 µM

Question: And the TGI [31]?
Answer: 14.5 µM

Question: What about the GI50 [32] of the same compound?
Answer: 10.9 µM

Question: And the TGI [32]?
Answer: 27.9 µM

Question: What about the GI50 [33] of the same compound?
Answer: 29.8 µM

Question: What about the TGI [33] of the same compound?
Answer: > 100 µM

Question: And the GI50 [34]?
Answer: 14.5 µM

Question: What about the TGI [34] of the same compound?
Answer: 37.7 µM

Question: And the GI50 [35]?
Answer: 3.96 µM

Question: And the TGI [35]?
Answer: 17.1 µM

Question: And the GI50 [36]?
Answer: 13.3 µM

Question: What about the TGI [36] of the same compound?
Answer: 60.9 µM

Question: And the GI50 [37]?
Answer: 11.2 µM

Question: What about the TGI [37] of the same compound?
Answer: 42.1 µM

Question: What about the GI50 [38] of the same compound?
Answer: 7.37 µM

Question: What about the TGI [38] of the same compound?
Answer: 36.5 µM

Question: What about the GI50 [39] of the same compound?
Answer: 3.43 µM

Question: What about the TGI [39] of the same compound?
Answer: 13.1 µM

Question: What about the GI50 [40] of the same compound?
Answer: 40.3 µM

Question: And the TGI [40]?
Answer: > 100 µM

Question: And the GI50 [41]?
Answer: 3.8 µM

Question: What about the TGI [41] of the same compound?
Answer: 14.8 µM

Question: What about the GI50 [42] of the same compound?
Answer: 4.26 µM

Question: What about the TGI [42] of the same compound?
Answer: 29 µM

Question: And the GI50 [43]?
Answer: 15.3 µM

Question: And the TGI [43]?
Answer: 43 µM

Question: And the GI50 [44]?
Answer: 10.8 µM

Question: What about the TGI [44] of the same compound?
Answer: 25.3 µM

Question: What about the GI50 [45] of the same compound?
Answer: 4.86 µM

Question: What about the TGI [45] of the same compound?
Answer: 19.5 µM

Question: And the GI50 [46]?
Answer: 10.7 µM

Question: And the TGI [46]?
Answer: 33.1 µM

Question: What about the GI50 [47] of the same compound?
Answer: 1.64 µM

Question: And the TGI [47]?
Answer: 3.42 µM

Question: What about the GI50 [48] of the same compound?
Answer: 25.7 µM

Question: What about the TGI [48] of the same compound?
Answer: > 100 µM

Question: What about the GI50 [49] of the same compound?
Answer: 5.32 µM

Question: What about the TGI [49] of the same compound?
Answer: 19.2 µM

Question: What about the GI50 [50] of the same compound?
Answer: 12.4 µM

Question: And the TGI [50]?
Answer: 84.8 µM

Question: And the GI50 [51]?
Answer: 37.6 µM

Question: And the TGI [51]?
Answer: > 100 µM

Question: What about the GI50 [52] of the same compound?
Answer: 9.35 µM

Question: And the TGI [52]?
Answer: 26.9 µM

Question: And the GI50 [53]?
Answer: 10.3 µM

Question: And the TGI [53]?
Answer: 27.1 µM

Question: What about the GI50 [54] of the same compound?
Answer: 3.33 µM

Question: And the TGI [54]?
Answer: 11 µM

Question: What about the GI50 [55] of the same compound?
Answer: 39.7 µM

Question: What about the TGI [55] of the same compound?
Answer: > 100 µM

Question: What about the GI50 [56] of the same compound?
Answer: 51.1 µM

Question: What about the TGI [56] of the same compound?
Answer: > 100 µM

Question: And the GI50 [57]?
Answer: 3.61 µM

Question: What about the TGI [57] of the same compound?
Answer: 16.5 µM

Question: And the GI50 [58]?
Answer: 3.43 µM

Question: What about the TGI [58] of the same compound?
Answer: 15.9 µM

Question: And the GI50 [59]?
Answer: 12.2 µM

Question: What about the TGI [59] of the same compound?
Answer: 32.4 µM
